Test results reported in patent US8916575B2, “Quinazoline derivatives for the treatment of viral infections and further diseases” (Janssen R&D Ireland, priority 2011, dated 2014).
Marks after values point to notes of the source that are not given here.

Experiments:
human TLR7 = target: T1, human TLR7 (Homo sapiens, UniProt Q9NYK1); experiment: TLR7 wild type NFκB-luc cellular reporter assay; type: cell-based; set-up: unit not given here; conditions: for TLR7-wt (LEC): second part of table
T1 construct: expressed in transfected cells; host or cells: HEK293
T1 sequence (Q9NYK1 27-1049): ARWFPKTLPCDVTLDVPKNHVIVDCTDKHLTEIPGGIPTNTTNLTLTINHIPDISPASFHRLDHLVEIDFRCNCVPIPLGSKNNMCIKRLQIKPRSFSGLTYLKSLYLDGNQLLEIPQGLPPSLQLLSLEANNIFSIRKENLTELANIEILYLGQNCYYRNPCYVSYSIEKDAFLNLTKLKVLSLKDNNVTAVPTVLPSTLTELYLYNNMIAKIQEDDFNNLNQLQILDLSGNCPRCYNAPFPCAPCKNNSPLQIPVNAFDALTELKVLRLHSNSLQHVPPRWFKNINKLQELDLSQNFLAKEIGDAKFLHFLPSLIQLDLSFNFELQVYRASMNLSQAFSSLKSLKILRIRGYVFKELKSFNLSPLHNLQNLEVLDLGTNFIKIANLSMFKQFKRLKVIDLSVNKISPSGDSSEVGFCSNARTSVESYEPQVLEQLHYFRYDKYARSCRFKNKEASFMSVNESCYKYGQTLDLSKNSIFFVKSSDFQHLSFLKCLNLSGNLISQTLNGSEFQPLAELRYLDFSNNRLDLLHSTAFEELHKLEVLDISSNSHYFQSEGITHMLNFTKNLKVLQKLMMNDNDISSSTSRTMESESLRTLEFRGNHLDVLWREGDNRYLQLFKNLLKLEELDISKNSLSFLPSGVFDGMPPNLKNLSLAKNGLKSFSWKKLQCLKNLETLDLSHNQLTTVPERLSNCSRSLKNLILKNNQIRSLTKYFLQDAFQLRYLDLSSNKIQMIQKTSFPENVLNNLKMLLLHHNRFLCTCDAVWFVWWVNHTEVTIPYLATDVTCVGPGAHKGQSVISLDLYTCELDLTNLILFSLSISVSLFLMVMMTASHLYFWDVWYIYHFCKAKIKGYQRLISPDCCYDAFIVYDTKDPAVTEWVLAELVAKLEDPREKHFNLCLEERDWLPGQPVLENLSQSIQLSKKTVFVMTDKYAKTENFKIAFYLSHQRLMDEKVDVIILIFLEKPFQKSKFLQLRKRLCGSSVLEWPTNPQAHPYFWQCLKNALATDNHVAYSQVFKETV
Experimental: The ability of compounds to activate human TLR7 and/or TLR8 was assessed in a cellular reporter assay using HEK293 cells transiently transfected with a TLR7 or TLR8 expression vector and NFκB-luc reporter construct. In one instance the TLR expression construct expresses the respective wild type sequence or a mutant sequence comprising a deletion in the second leucine-rich repeat of the TLR.
Briefly, HEK293 cells were grown in culture medium (DMEM supplemented with 10% FCS and 2 mM Glutamine). For transfection of cells in 10 cm dishes, cells were detached with Trypsin-EDTA, transfected with a mix of CMV-TLR7 or TLR8 plasmid (750 ng), NFκB-luc plasmid (375 ng) and a transfection reagent and incubated 24 hours at 37° C. in a humidified 5% CO2 atmosphere. Transfected cells were then detached with Trypsin-EDTA, washed in PBS and resuspended in medium to a density of 1.67×10^5 cells/mL. Thirty microliters of cells were then dispensed into each well in 384-well plates, where 10 μL of compound in 4% DMSO was already present. […] Dose response curves were generated from measurements performed in quadruplicates. Lowest effective concentrations (LEC) values, defined as the concentration that induces an effect which is at least two fold above the standard deviation of the assay, were determined for each compound.

[1] = system: interferon-stimulated responsive elements (ISRE); experiment: Activation of ISRE promoter elements by conditioned media from PBMC (HEK-ISREluc); type: cell-based, human; set-up: unit not given here; conditions: compound applied to PBMCs, supernatant transferred to HEK-ISREluc cells, 24 hours
Experimental: The potential of compounds to induce IFN-I was also evaluated by measuring the activation of interferon-stimulated responsive elements (ISRE) by conditioned media from PBMC. The ISRE element of sequence GAAACTGAAACT is highly responsive to the STAT1-STAT2-IRF9 transcription factor, activated upon binding of IFN-I to their receptor IFNAR (Clontech, PT3372-5W). The plasmid pISRE-Luc from Clontech (ref. 631913) contains 5 copies of this ISRE element, followed by the firefly luciferase ORF. A HEK293 cell line stably transfected with pISRE-Luc (HEK-ISREluc) was established to profile of the conditioned PBMC cell culture media.
Briefly, PBMCs were prepared from buffy coats of at least two donors using a standard Ficoll centrifugation protocol. Isolated PBMCs were resuspended in RPMI medium supplemented with 10% human AB serum and 2×10^5 cells/well were dispensed into 384-well plates containing compounds (70 μL total volume). After overnight incubation, 10 μL of supernatant was transferred to 384-well plates containing 5×10^3 HEK-ISREluc cells/well in 30 μL (plated the day before). Following 24 hours of incubation, activation of the ISRE elements was measured by assaying luciferase activity using 40 μL/well Steady Lite Plus substrate (Perkin Elmer) and measured with ViewLux ultraHTS microplate imager (Perkin Elmer). The stimulating activity of each compound on the HEK-ISREluc cells was reported as LEC value, defined as the compound concentration applied to the PBMCs resulting in a luciferase activity at least two fold above the standard deviation of the assay. The LEC in turn indicates the degree of ISRE activation on transfer of a defined amount of PBMC culture medium. Recombinant interferon α-2a (Roferon-A) was used as a standard control compound.

[2] = HEK293 NFκB-luc reporter, 6 hours incubation

| SMILES | TLR7-wt (LEC) (human TLR7; [2]) | TLR7-wt_LEC (human TLR7; HEK293 NFκB-luc reporter, 6 hours incubation, lowest effective concentration) | TLR7-wt_LEC (human TLR7; Assay run at 48 hours) | HEK-ISRE luc (LEC) [1] |
| --- | --- | --- | --- | --- |
| CCCCNc1nc(N)nc2cc(OC)c(OC)cc12 [Compound 1] |  | 5.0 |  |  |
| CCCC[C@@H](CCO)Nc1nc(N)nc2cc(OC)c(OC)cc12 [Compound 3] |  |  | 4.0 * |  |
| CCCCNc1nc(N)nc2cc(CO)ccc12 [Compound 18] | 0.13 |  |  | 0.05 |
| CCCCNc1nc(N)nc2ccc(CO)cc12 [Compound 24] | 0.93 |  |  | 0.14 |
| CCC[C@@H](CCO)Nc1nc(N)nc2ccc(CC)cc12 [Compound 25] | 0.57 |  |  | 0.16 |
| CCC[C@@H](CCO)Nc1nc(N)nc2ccc(C(C)C)cc12 [Compound 26] | 3.60 |  |  | 3.07 |
| CCC[C@@H](CCO)Nc1nc(N)nc2ccc(Oc3ccc(C(F)(F)F)cc3Cl)cc12 [Compound 27] | 12.95 |  |  | 14.21 |
| CCCCNc1nc(N)nc2cc(Cl)c3c(c12)OCCO3 [Compound 28] | 2.06 |  |  | 1.11 |
| C#CCOc1cccc2nc(N)nc(NCCCC)c12 [Compound 30] | 0.05 |  |  | 0.04 |
| CCCCNc1nc(N)nc2cccc(OC(C)C)c12 [Compound 31] | 0.09 |  |  | 0.04 |
| CCC[C@@H](CO)Nc1nc(N)nc2cc(CO)ccc12 [Compound 33] | 1.88 |  |  | 0.14 |
| CCC[C@@H](CO)Nc1nc(N)nc2ccc(CO)cc12 [Compound 34] | 10.77 |  |  | 0.39 |
| CCCCNc1nc(N)nc2ccc(Oc3ccc(C(F)(F)F)cc3Cl)cc12 [Compound 35] | 4.15 |  |  | >23.81 |
| CCCCNc1nc(N)nc2c(F)cccc12 [Compound 37] | 0.16 |  |  | 0.07 |

Now from value to compound, other results behind:

| TLR7-wt (LEC) (human TLR7; [2]) | SMILES | TLR7-wt_LEC (human TLR7; HEK293 NFκB-luc reporter, 6 hours incubation, lowest effective concentration) | TLR7-wt_LEC (human TLR7; Assay run at 48 hours) | HEK-ISRE luc (LEC) [1] |
| --- | --- | --- | --- | --- |
| 0.41 | CCCCNc1nc(N)nc2cccc(OC)c12 [Compound 9] |  |  | 0.10 |
| 6.08 | CCC[C@@H](CO)Nc1nc(N)nc2cccc(-c3ccccc3)c12 [Compound 10] |  |  | 2.14 |
| 0.08 | CCCCNc1nc(N)nc2cccc(OCCOC)c12 [Compound 11] |  |  | 0.12 |
| 0.76 | CCCCCNc1nc(N)nc2ccc(Br)cc12 [Compound 13] |  |  | 0.57 |
| 5.10 | CCCCNc1nc(N)nc2cc(C(=O)OC)ccc12 [Compound 17] |  |  | 0.75 |
| >25 | CCCCNc1nc(N)nc2ccc(-n3cnc(C)c3)cc12 [Compound 21] |  |  | 12.06 |
| 11.13 | CCC[C@@H](CCO)Nc1nc(N)nc2ccc(Oc3ccc(C(F)(F)F)cc3)cc12 [Compound 29] |  |  | >23.81 |
| 0.13 | CCCCNc1nc(N)nc2cccc(CCc3ccccc3)c12 [Compound 32] |  |  | 0.27 |
| 0.47 | CCCCNc1nc(N)nc2cccc(C)c12 [Compound 36] |  |  | 0.32 |
